# Reference: patent US6538029B1, “Methods for treatment of renal cell carcinoma” (Cell Pathways, priority 2002, dated 2003)
# Where two headings read alike, the source gives them in different places.
# Legend:
# [1] = tested on: 786-O cells; assay type: cell-based; conditions: Homo sapiens, 786-0, 144 h; 6 days with drug, sulforhodamine B
# Method: Testing of Neoplastic Cell Growth Inhibition of PDE10-Inhibiting Compounds on Renal Cell Carcinoma (786-O) Cells. […] After 24 hours, the media was removed, and the same media containing the drug was added to the cells (0.1% DMSO final concentration).
# [2] = biological target: PDE10 from 786-O (Homo sapiens, UniProt Q9Y233); assay: Inhibition and kinetics of PDE10 from 786-O (pooled fractions of the center peak); assay type: biochemical; conditions: for IC50: pooled center-peak fractions
# PDE10 from 786-O, sequence (Q9Y233 290-1055 limits assumed): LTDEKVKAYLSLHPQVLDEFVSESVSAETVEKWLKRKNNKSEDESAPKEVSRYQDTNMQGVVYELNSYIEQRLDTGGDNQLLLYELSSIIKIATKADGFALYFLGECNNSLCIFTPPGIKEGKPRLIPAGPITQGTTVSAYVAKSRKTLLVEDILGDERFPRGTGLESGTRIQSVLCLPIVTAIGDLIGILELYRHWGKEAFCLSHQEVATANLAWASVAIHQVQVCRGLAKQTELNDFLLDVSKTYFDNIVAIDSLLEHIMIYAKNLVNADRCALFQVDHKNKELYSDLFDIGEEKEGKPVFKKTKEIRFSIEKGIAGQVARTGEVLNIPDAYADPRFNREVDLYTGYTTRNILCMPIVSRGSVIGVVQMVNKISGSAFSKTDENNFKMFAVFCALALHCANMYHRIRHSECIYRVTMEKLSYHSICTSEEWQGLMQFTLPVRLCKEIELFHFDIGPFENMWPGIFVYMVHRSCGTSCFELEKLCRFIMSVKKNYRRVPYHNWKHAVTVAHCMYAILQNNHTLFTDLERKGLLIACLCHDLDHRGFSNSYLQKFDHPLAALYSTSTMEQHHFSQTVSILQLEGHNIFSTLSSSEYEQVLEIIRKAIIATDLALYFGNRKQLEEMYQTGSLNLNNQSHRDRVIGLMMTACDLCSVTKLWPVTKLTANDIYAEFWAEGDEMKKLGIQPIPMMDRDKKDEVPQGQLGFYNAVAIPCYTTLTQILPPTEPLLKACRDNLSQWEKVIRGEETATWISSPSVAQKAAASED
# Method: (§1) Fractions were pooled from a 786-O profile from the center peak.
# as §1
# (§2) Protein assays were determined using the Bio-Rad DC Protein Assay. A nonlinear regression to the Michalis-Menten equation in Prism was used to determine the Km and Vmax.
# as §2
# [3] = tested on: 786-O cells; assay: Apoptosis on 786-O cells (Roche Cell Death Assay); assay type: cell-based, human; conditions: 48 hours with drug
# Method: Testing of PDE10-Inhibiting Compounds for Apoptosis on Renal Carcinoma (786-O) Cells. […] After 24 hours, the media was removed and the same media containing the drug was added to the cells (0.1% DMSO final concentration). After 48 hours, apoptosis was detected using the Roche Cell Death Assay.
# [4] = biological target: cloned and expressed human PDE10 (Homo sapiens, UniProt Q9Y233); conditions: cited from earlier work; for IC50 / Published IC50s on cloned PDE10, cGMP / Published IC50s on cloned PDE10, cAMP: literature values
# cloned and expressed human PDE10, sequence (Q9Y233 1-779 isoform Q9Y233-1): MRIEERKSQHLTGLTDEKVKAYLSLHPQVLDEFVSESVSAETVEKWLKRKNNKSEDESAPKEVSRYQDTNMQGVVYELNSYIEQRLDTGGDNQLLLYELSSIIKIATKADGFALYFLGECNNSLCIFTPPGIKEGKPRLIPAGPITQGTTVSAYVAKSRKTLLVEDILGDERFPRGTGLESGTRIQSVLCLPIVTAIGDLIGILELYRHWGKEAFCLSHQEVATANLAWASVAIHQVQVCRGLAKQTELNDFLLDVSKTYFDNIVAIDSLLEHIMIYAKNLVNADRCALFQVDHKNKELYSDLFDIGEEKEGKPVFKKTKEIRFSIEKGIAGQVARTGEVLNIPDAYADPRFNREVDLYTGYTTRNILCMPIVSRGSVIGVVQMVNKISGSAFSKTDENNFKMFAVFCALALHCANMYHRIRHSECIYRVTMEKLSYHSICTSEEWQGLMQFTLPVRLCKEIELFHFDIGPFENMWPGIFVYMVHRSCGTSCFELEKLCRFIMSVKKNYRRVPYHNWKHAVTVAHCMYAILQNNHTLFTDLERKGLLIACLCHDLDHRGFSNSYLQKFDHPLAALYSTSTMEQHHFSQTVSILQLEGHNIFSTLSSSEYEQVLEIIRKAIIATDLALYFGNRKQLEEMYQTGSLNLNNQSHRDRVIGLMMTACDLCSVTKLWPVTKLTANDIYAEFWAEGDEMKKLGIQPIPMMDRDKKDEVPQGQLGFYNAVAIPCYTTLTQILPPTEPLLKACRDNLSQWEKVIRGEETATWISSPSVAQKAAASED
# [5] = read-out: μM IC50s on PDE10 from 786-O, cAMP, cAMP substrate at 0.09 μM, table: N = 2 average, EHNA, Milrinone, Rolipram N = 1
# [6] = read-out: μM IC50s on PDE10 from 786-O, cGMP, cGMP substrate at 5.5 μM, table: N = 2 average, EHNA, Milrinone, Rolipram N = 1
# [7] = read-out: Published IC50s on cloned PDE10, cAMP, cAMP as substrate
# [8] = read-out: Published IC50s on cloned PDE10, cGMP, cGMP as substrate
# [9] = μM IC50s on PDE10 from 786-O, cAMP, cAMP substrate at 0.09 μM, table: N = 2 average, EHNA, Milrinone, Rolipram N = 1
# [10] = μM IC50s on PDE10 from 786-O, cGMP, cGMP substrate at 5.5 μM, table: N = 2 average, EHNA, Milrinone, Rolipram N = 1
smiles,measurement,setting,value
"CC1=C(CC(=O)O)c2cc(F)ccc2/C1=C\c1ccc(S(C)(=O)=O)cc1 [Exisulind, exisulind, reference compound]",IC50,[1],273 µM
same,IC50,"[2]; IC50 on PDE10 from 786-O (inhibition of cGMP PDE activity), FIG. 8, 9",134 µM
same,Induction of apoptosis in the 786-O cells,[3],did not show significant induction of apoptosis
CC(C)Cn1c(=O)n(C)c(=O)c2[nH]cnc21 [IBMX],IC50,[2]; [5],4.5 µM
same,IC50,[2]; [6],6.3 µM
same,IC50,[4]; [7],17 µM
same,IC50,[4]; [8],11 µM
CCCCCC[C@@H]([C@@H](C)O)n1cnc2c(N)ncnc21 (racemic) [EHNA],IC50,[2]; [5],60 µM
same,IC50,[2]; [6],46 µM
same,IC50,[4]; [7],> 100 µM
same,IC50,[4]; [8],> 100 µM
"COc1cc(/C=C2/C(C)=C(CC(=O)NCc3ccccc3)c3cc(F)ccc32)cc(OC)c1OC [Compound A, 1 H-indene-3-acetamide, 5-fluoro-2-methyl-N-(phenylmethyl)-1-[(3,4,5-trimethoxyphenyl)methylene]-, (1Z)]",IC50,[1],0.03 µM
same,IC50,"[2]; IC50 on PDE10 from 786-O (inhibition of cGMP PDE activity), FIG. 10",0.031 µM
same,IC50,"[3]; Homo sapiens, 786-0, read-out: IC50 for induction of apoptosis in the 786-O cell line",0.071 µM
"Nc1nc2c(ncn2[C@@H]2O[C@@H]3COP(=O)(O)O[C@H]3[C@H]2O)c(=O)[nH]1 [cGMP, cyclic 3′,5′-guanosine monophosphate]",Km,"[2]; Michaelis-Menten plot, 30 min at 30° C., FIG. 4, 6, read-out: Km for the 786-O PDE",6.5 µM
same,Vmax,[2]; pooled center-peak fraction,461 pmol/min/mg
same,Km,"[2]; pooled fractions 57-75 of PDE10, read-out: Km, average of three values (stdev in parenthesis)",5.5 µM
same,IC50,[2]; [5],5.2 µM
same,Vmax ratio of cGMP/cAMP,[2]; times higher than Vmax for cAMP,2.4
same,"Vmax ratio of cGMP/cAMP, cloned and expressed PDE10",[4]; Fujishige et al. 1999,2.2
same,Km,"[4]; Fujishige et al. 1999, read-out: Km published for cloned and expressed PDE10",7.2 µM
same,IC50,[4]; [7],14 µM
CCCOc1ccccc1-c1nc2nn[nH]c2c(=O)[nH]1 [Zaprinast],IC50,[2]; [9],13 µM
same,IC50,[2]; [10],17 µM
same,"Published IC50s on cloned PDE10, cGMP",[4]; cGMP as substrate,14 µM
Cc1[nH]c(=O)c(C#N)cc1-c1ccncc1 [Milrinone],IC50,[2]; [9],84 µM
same,IC50,[2]; [10],103 µM
same,"Published IC50s on cloned PDE10, cAMP",[4]; cAMP as substrate,>100 µM
same,"Published IC50s on cloned PDE10, cGMP",[4]; cGMP as substrate,>100 µM
CCOC(=O)C1=C[C@]2(CC)CCCN3CCc4c(n1c1ccccc41)[C@@H]32 [Vinpocetine],IC50,[2]; [9],38 µM
same,IC50,[2]; [10],45 µM
same,"Published IC50s on cloned PDE10, cAMP",[4]; cAMP as substrate,77 µM
same,"Published IC50s on cloned PDE10, cGMP",[4]; cGMP as substrate,73 µM
O=C(O)C1CCN(c2nc(NCc3ccc4c(c3)OCO4)c3cc(Cl)ccc3n2)CC1 [Example E4021],IC50,[2]; [5],2.8 µM
same,IC50,[2]; [6],3.2 µM
same,IC50,[4]; [7],7.2 µM
same,IC50,[4]; [8],4.2 µM
